From PubChem BioAssay (NCI)
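Where inhibition never reached the appropriate level, the endpoint shown equals the highest concentration tested. Otherwise, values were interpolated linearly from a five-concentration, 48-hour dose response in 96-well plates. TGI marks complete inhibition of growth.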

Tests used:
Assay in all cases: growth of human tumour cells (NCI), 48 h
786-0 renal = test system: 786-0 renal
A498 renal = test system: A498 renal
A549 NSCLC = test system: A549 NSCLC
ACHN renal = test system: ACHN renal
CAKI-1 renal = test system: CAKI-1 renal
CCRF-CEM leukemia = test system: CCRF-CEM leukemia
COLO 205 colon = test system: COLO 205 colon
DMS 114 small cell lung = test system: DMS 114 small cell lung
DMS 273 small cell lung = test system: DMS 273 small cell lung
EKVX NSCLC = test system: EKVX NSCLC
HCC-2998 colon = test system: HCC-2998 colon
HCT-116 colon = test system: HCT-116 colon
HCT-15 colon = test system: HCT-15 colon
HL-60(TB) leukemia = test system: HL-60(TB) leukemia
HOP-18 NSCLC = test system: HOP-18 NSCLC
HOP-92 NSCLC = test system: HOP-92 NSCLC
HT29 colon = test system: HT29 colon
IGROV1 ovarian = test system: IGROV1 ovarian
K-562 leukemia = test system: K-562 leukemia
KM12 colon = test system: KM12 colon
KM20L2 colon = test system: KM20L2 colon
LOX IMVI melanoma = test system: LOX IMVI melanoma
LXFL 529 NSCLC = test system: LXFL 529 NSCLC
M14 melanoma = test system: M14 melanoma
M19-MEL melanoma = test system: M19-MEL melanoma
MALME-3M melanoma = test system: MALME-3M melanoma
MOLT-4 leukemia = test system: MOLT-4 leukemia
NCI-H226 lung = test system: NCI-H226 lung
NCI-H23 lung = test system: NCI-H23 lung
NCI-H460 lung = test system: NCI-H460 lung
NCI-H522 lung = test system: NCI-H522 lung
OVCAR-3 ovarian = test system: OVCAR-3 ovarian
OVCAR-4 ovarian = test system: OVCAR-4 ovarian
OVCAR-5 ovarian = test system: OVCAR-5 ovarian
OVCAR-8 ovarian = test system: OVCAR-8 ovarian
RPMI-8226 leukemia = test system: RPMI-8226 leukemia
RXF 393 renal = test system: RXF 393 renal
RXF-631 renal = test system: RXF-631 renal
SF-268 CNS = test system: SF-268 CNS
SF-295 CNS = test system: SF-295 CNS
SK-MEL-2 melanoma = test system: SK-MEL-2 melanoma
SK-MEL-28 melanoma = test system: SK-MEL-28 melanoma
SK-MEL-5 melanoma = test system: SK-MEL-5 melanoma
SK-OV-3 ovarian = test system: SK-OV-3 ovarian
SN12C renal = test system: SN12C renal
SNB-19 CNS = test system: SNB-19 CNS
SNB-75 CNS = test system: SNB-75 CNS
SNB-78 CNS = test system: SNB-78 CNS
SW-620 colon = test system: SW-620 colon
TK-10 renal = test system: TK-10 renal
U251 CNS = test system: U251 CNS
UACC-257 melanoma = test system: UACC-257 melanoma
UACC-62 melanoma = test system: UACC-62 melanoma
UO-31 renal = test system: UO-31 renal
DLD-1 colon = test system: DLD-1 colon
HOP-62 NSCLC = test system: HOP-62 NSCLC
SF-539 CNS = test system: SF-539 CNS
SR leukemia = test system: SR leukemia

Measured: TGI

CCCCCCCCCCCCCCCCOC(=O)c1cc(O)cc(C(=O)OCCCCCCCCCCCCCCCC)c1
> 100 µM: 786-0 renal | A498 renal | A549 NSCLC | ACHN renal | CAKI-1 renal | CCRF-CEM leukemia | COLO 205 colon | DMS 114 small cell lung | DMS 273 small cell lung | EKVX NSCLC | HCC-2998 colon | HCT-116 colon | HCT-15 colon | HL-60(TB) leukemia | HOP-18 NSCLC | HOP-92 NSCLC | HT29 colon | IGROV1 ovarian | K-562 leukemia | KM12 colon | KM20L2 colon | LOX IMVI melanoma | LXFL 529 NSCLC | M14 melanoma | M19-MEL melanoma | MALME-3M melanoma | MOLT-4 leukemia | NCI-H226 lung | NCI-H23 lung | NCI-H460 lung | NCI-H522 lung | OVCAR-3 ovarian | OVCAR-4 ovarian | OVCAR-5 ovarian | OVCAR-8 ovarian | RPMI-8226 leukemia | RXF 393 renal | RXF-631 renal | SF-268 CNS | SF-295 CNS | SK-MEL-2 melanoma | SK-MEL-28 melanoma | SK-MEL-5 melanoma | SK-OV-3 ovarian | SN12C renal | SNB-19 CNS | SNB-75 CNS | SNB-78 CNS | SW-620 colon | TK-10 renal | U251 CNS | UACC-257 melanoma | UACC-62 melanoma | UO-31 renal

O=S(=O)(c1ccc(O)c(C=Nc2ccc(Cl)cc2)c1)c1ccc(O)c(C=Nc2ccc(Cl)cc2)c1
> 100 µM: 786-0 renal | A498 renal | A549 NSCLC | ACHN renal | CAKI-1 renal | CCRF-CEM leukemia | COLO 205 colon | DLD-1 colon | DMS 114 small cell lung | DMS 273 small cell lung | EKVX NSCLC | HCC-2998 colon | HCT-116 colon | HL-60(TB) leukemia | HOP-18 NSCLC | HOP-62 NSCLC | HOP-92 NSCLC | HT29 colon | IGROV1 ovarian | K-562 leukemia | KM12 colon | KM20L2 colon | LOX IMVI melanoma | LXFL 529 NSCLC | M14 melanoma | M19-MEL melanoma | MALME-3M melanoma | MOLT-4 leukemia | NCI-H226 lung | NCI-H23 lung | NCI-H460 lung | NCI-H522 lung | OVCAR-3 ovarian | OVCAR-4 ovarian | OVCAR-5 ovarian | OVCAR-8 ovarian | RPMI-8226 leukemia | RXF 393 renal | RXF-631 renal | SF-268 CNS | SF-295 CNS | SF-539 CNS | SK-MEL-2 melanoma | SK-MEL-28 melanoma | SK-MEL-5 melanoma | SK-OV-3 ovarian | SN12C renal | SNB-19 CNS | SNB-75 CNS | SR leukemia | SW-620 colon | TK-10 renal | U251 CNS | UACC-257 melanoma | UACC-62 melanoma | UO-31 renal
